Experimental data: ChEMBL document CHEMBL1938305, “Antioxidative oligostilbenes from Caragana sinica” (Bioorg Med Chem Lett, 2012)

Columns and labels:
[1] = Antioxidant activity assessed as inhibition of lipid peroxidation; format: functional
[2] = tested on: Radical scavenging activity; assay: Antioxidant activity assessed as DPPH free radical scavenging activity after 30 mins by microplate reader assay; format: functional

IC50 [1]	IC50 [2]	Compound
> 200 µM	> 200 µM	Oc1ccc([C@H]2c3c(O)cc(O)cc3[C@H]3c4c(O)cc(O)cc4[C@@H]2[C@H]3c2ccc(O)cc2)cc1
> 200 µM	> 200 µM	Oc1ccc(C2[C@H]3c4cc(O)cc(O)c4[C@@H](c4ccc(O)cc4)[C@@H]2c2cc(O)cc(O)c23)cc1 (stereo partly drawn)
> 200 µM	> 200 µM	Oc1ccc([C@H]2Oc3cc(O)cc4c3[C@@H]2c2cc(O)cc3c2[C@@H](c2cc(O)cc5c2[C@@H]4[C@H](c2ccc(O)cc2)O5)[C@H](c2ccc(O)cc2)O3)cc1 (relative stereo)
128 µM	165 µM	Oc1ccc([C@@H]2c3c(O)cc(O)cc3[C@H]3[C@H](c4ccc(O)cc4)c4c(O)cc(O)cc4[C@@H]23)cc1 (relative stereo) [PALLIDOL]
12.5 µM		Cc1c(C)c2c(c(C)c1O)CC[C@@](C)(CCC[C@H](C)CCC[C@H](C)CCCC(C)C)O2 [ALPHA-TOCOPHEROL]
	57.2 µM	O=C1O[C@H]([C@@H](O)CO)C(O)=C1O [ASCORBIC ACID]
43.1 µM	73.9 µM	O=C(c1ccc(O)cc1)[C@H]1c2cc(O)cc(O)c2[C@@H](c2ccc(O)cc2)[C@H]1c1cc(O)cc(O)c1 [CARAPHENOL B]
> 200 µM	> 200 µM	COc1cc(O)cc2c1C(=O)C(O)(Cc1ccc(O)cc1)O2 (stereo not drawn) [CARPUSIN]
> 200 µM	> 200 µM	Oc1ccc([C@H]2Oc3cc(O)cc([C@@H]4[C@H](c5cc(O)cc(O)c5)[C@@H](c5ccc(O)cc5)O[C@H]4c4ccc(O)cc4)c3[C@@H]2c2cc(O)c3c(c2)[C@@H](c2cc(O)cc(O)c2)[C@H](c2ccc(O)cc2)O3)cc1 [KOBOPHENOL A]
30.1 µM	92.1 µM	Oc1ccc(/C=C/c2cc(O)cc(O)c2)cc1 [RESVERATROL]
